Data as given in patent US20050249787A1, “Methods and compositions for reducing oxidative stress in an animal” (Nestec SA, priority 2004, published 2005).
Marks after values point to notes of the source that are not given here.

Assays:
[1] = tested on: peripheral blood mononuclear cells (PBMCs); assay: In vitro lymphoproliferation of stimulated PBMC (Example 5); type: cell-based, dogs; conditions: astaxanthin added to the media during stimulation, vs absence
[2] = tested on: canine lens epithelial cells; assay: Canine lens epithelial cells stressed with UV light (Example 3); type: cell-based; conditions: astaxanthin at physiological levels, UV light stress
Source text: An in vitro experiment may be performed using canine lens epithelial cells supplemented with astaxanthin at physiological levels.

[3] = Plasma total Oxidative Radical Absorptive Capacity (ORAC) in exercising sled dogs; type: in vivo; conditions: for ORAC (index of total anti-oxidant status) improvement by supplementation: any of the time periods measured
Method: (§1) Three groups of twelve dogs (mixed breed Alaskan sled dogs (husky pointer crosses)) were fed commercially available Pro Plan® Performance chicken and rice formula dog food as a basal diet, and each group was fed either: a placebo consisting of about 0.5 g maltodextrin, about 2 mg astaxanthin, or about 400 mg Vitamin E (alpha-tocopherol). Pro Plan® dog food is available from Nestle Purina Pet Care Company in St. Louis, Missouri. The dogs were trained three times a week on an exercise wheel for a period of six weeks. On the sixth week, the dogs rested for four days and then exercised three days in a row. Blood samples were collected before exercise on day one, immediately after exercise on day three, and at 24 hours and 48 hours after exercise. Plasma from the blood samples was analyzed for concentrations of malondialdehyde, F-2 isoprostanes, Vitamin E, creatine kinase activity as well as oxygen radical absorption capacity (ORAC).
(§2) All the dogs were maintained on the same basal diet (Purina Pro Plan® Performance chicken and rice formula) for one month prior to the onset and the entire duration of the experiment. Each dog was fed as an individual to maintain an optimal body condition score of 4/10.
(§3) Thirty-six sled dogs were housed at the Nestle Purina facility in Salcha, Alaska. The dogs were divided into three groups of 12 dogs so that each group was alike in age, sex and ability distribution. A treatment was randomly assigned to each group by drawing from a hat. Group “A” was assigned about 400 mg Vitamin E/day, group “B” was assigned about 2 mg Astaxanthin/day and group “C” was assigned about 500mg maltodextrin as a placebo. The people responsible for feeding, care, and training of the dogs were blind as to the identity of treatments until the completion of the study. Dogs were treated for six weeks before the onset of testing. They were also trained lightly for two sessions per week during this time period. Training sessions consisted of walking at 14 kilometers per hour for 2 hours in a 40-foot diameter circle tethered to a dog-walking wheel.
(§4) The testing took place over a six day period. On day one, pre-exercise blood samples were drawn from all the dogs. On day two, the dogs ran twelve km while pulling an all terrain vehicle (ATV) weighing 500 pounds. On day three, the dogs walked 16 miles on the dog wheel. On day four, the dogs again pulled the ATV for a distance of 12 kilometers. Immediately after exercise on day four, blood samples were drawn. Additional blood samples were drawn again at 24 hours and 48 hours after exercise. This sampling schedule was designed to examine changes in the parameters measured during exercise and during recovery. Samples were obtained by jugular venipuncture and collected into evacuated glass tubes containing sodium EDTA as an anticoagulant. Once collected they were kept on ice for not more than 10 minutes before they were centrifuged at 10,000 revolutions per minute (RPM) in 4°C. for a period of 10 minutes. The plasma was transferred into freezer vials where the dead space was replaced with gaseous nitrogen to decrease further oxidation during storage. The vials were then capped and immediately quenched in liquid nitrogen. The vials were recovered from liquid nitrogen and stored at −70°C. until analyzed. Each plasma sample was analyzed for malondialdehyde concentration using a standard HPLC, F2-isoprostane concentration utilizing a mass spectrometer and standard ELISA, Vitamin E concentration utilizing a standard HPLC, and Oxidative Radical Absorbance Capacity (ORAC test kit, Oxford Co.
(§5) F2 isoprostane and CK data was evaluated using a two way ANOVA for repeated measures. Post hoc comparisons were made using a student's t test corrected for repeated measures by the Bonneferroni method. Statistical significance was set at p<0.05 . The other data was also evaluated using ANOVA. The abbreviation “se” used with respect to the data in the tables below refers to standard error.

F2-isoprostane = assay: Plasma F2-isoprostane (F2I) in exercising sled dogs; type: in vivo
Method: as §1, §2, §3, §4, §5

[4] = dog, in vivo
Method: as §1, with “Blood samples were collected before exercise on day one, immediately after exercise on day three, and at 24 hours and 48 hours after exercise.” left out, “(ORAC). […]” for “(ORAC).”
The testing took place over a six day period. […] This sampling schedule was designed to examine changes in the parameters measured during exercise and during recovery. […] The vials were recovered from liquid nitrogen and stored at −70°C. until analyzed. Each plasma sample was analyzed for malondialdehyde concentration using a standard HPLC, F2-isoprostane concentration utilizing a mass spectrometer and standard ELISA, Vitamin E concentration utilizing a standard HPLC, and Oxidative Radical Absorbance Capacity (ORAC test kit, Oxford Co. […]

[5] = Delayed-type hypersensitivity skin reaction (Example 5); type: in vivo, dogs; conditions: diet containing astaxanthin vs control animals
Method: (§6) To assess the effect of astaxanthin supplementation on immune function, dogs may be fed a diet containing astaxanthin and/or Vitamin E for 16 weeks. The amount of astaxanthin used may be 0, 1, 5, 10, 20, and 40 mg per animal per day. Various assays may be performed to assess immune function.
Delayed-type hypersensitivity may also be assessed in animals given a diet supplemented with astaxanthin. In these assays, control animals and animals fed a diet containing astaxanthin are given cutaneous injections of saline, a mitogen or a vaccine of distemper virus. The animals are then assessed to measure the skin reactions to mitogen, virus and control. In animals fed a diet containing astaxanthin, the skin reactions are more robust for virus and mitogen than that found in control animals.

NK cells = assay: Natural killer (NK) cell cytotoxicity from supplemented animals (Example 5); type: in vivo, dogs; conditions: diet containing astaxanthin vs control animals
Method: as §6
In another assay, natural killer (NK) cell cytotoxicity is assessed for NK cells isolated from animals that are fed a diet including astaxanthin supplementation.

cataract formation = assay: In vivo cataract formation study, slit-lamp test (Example 4); set-up: species or system dogs; conditions: treatment with astaxanthin, optionally Vitamin E, lutein, zeaxanthin, zinc; vs control; two year study
Source text: In a model study, 40 dogs could be chosen and randomly allocated to either the control group or to a treatment group receiving AAFCO recommended levels of antioxidants. The treatment group would receive astaxanthin and may also receive one or more of Vitamin E, lutein, zeaxanthin and zinc.

malondialdehyde = assay: Plasma malondialdehyde (MDA) in exercising sled dogs (HPLC); type: in vivo
Method: as §1, §2, §3, §4, §5

[6] = cited from earlier work
creatine kinase = assay: Plasma creatine kinase (CK) in exercising sled dogs; type: in vivo
Method: as §1, §2, §3, §4, §5

[7] = Osteoarthritis diet study, plasma and synovial fluid markers and gait (Example 6); type: in vivo, dogs; conditions: 12 weeks
Source text: A diet supplemented with astaxanthin may be shown to reduce inflammation and associated pain in osteoarthritis. […] At 12 weeks of treatment, plasma and synovial fluid samples are taken from each animal and assayed for total antioxidant activity, and levels of malionaldehyde, prostaglandin, isoprostanes, MMPs and TIMPs. Additionally, the gait of the dogs may be assessed using standard force plate analyses.

[8] = Antibody titers against an antigen (Example 5); type: in vivo, dogs; conditions: diet containing astaxanthin vs control animals
Method: as §6
Control animals and animals fed a diet containing astaxanthin may also be assessed for the robustness of the immune response against an antigen. For example, antibody titers against an antigen may be measured for control animals and animals fed a diet containing astaxanthin.

CC1=C(/C=C/C(C)=C/C=C/C(C)=C/C=C/C=C(C)/C=C/C=C(C)/C=C/C2=C(C)C(=O)[C@@H](O)CC2(C)C)C(C)(C)C[C@H](O)C1=O [ATX, astaxanthin]
proliferation of PBMC [1]: increases proliferation of cells significantly more | cell death [2]: significantly less cell death | free radical formation and lipid peroxidation products [2]: significantly reduce | Plasma total ORAC (mean +/− se) ([3]; 24 hour post): 5700 | Plasma total ORAC (mean +/− se) ([3]; 48 hour post): 4800 | Plasma total ORAC (mean +/− se) ([3]; Post-ex): 7460 | Plasma total ORAC (mean +/− se) ([3]; Pre-ex): 7980 | ORAC (index of total anti-oxidant status) improvement by supplementation [3]: not improved | Plasma F2 Isoprostane concentration (mean +/− se) (F2-isoprostane; 24 hour post): 90 | Plasma F2 Isoprostane concentration (mean +/− se) (F2-isoprostane; 48 hour post): 66 | Plasma F2 Isoprostane concentration (mean +/− se) (F2-isoprostane; Post-ex): 52 | Plasma F2 Isoprostane concentration (mean +/− se) (F2-isoprostane; Pre-ex): 167 | F2I values compared to the placebo group (F2-isoprostane; immediately post-exercise and at 24 hours post-exercise): lower | Plasma Vitamin E concentration compared between treatment groups [4]: no significant difference | skin reactions to virus and mitogen (delayed-type hypersensitivity) [5]: more robust | NK cytotoxicity (NK cells): significantly increased | cataract formation and severity, slit-lamp test (cataract formation): control group has significantly more cataract formation | Plasma MDA (mean +/− se) (malondialdehyde; 24 hour post): 0.95 | Plasma malondialdehyde compared with placebo and Vitamin E groups (malondialdehyde; 24 hours post exercise): lower than either the placebo value or the Vitamin E value | Plasma MDA (mean +/− se) (malondialdehyde; 48 hour post): 1.44 | Plasma MDA (mean +/− se) (malondialdehyde; Post-ex): 1.58 | Changes in Plasma MDA over time, Change from Baseline (malondialdehyde; Pre to 24 hour post): −0.485* | Changes in Plasma MDA over time, Change from Baseline (malondialdehyde; Pre to 48 hour Post): −0.004 | Changes in Plasma MDA over time, Change from Baseline (malondialdehyde; Pre to Post): 0.135 | Plasma MDA (mean +/− se) (malondialdehyde; Pre-ex): 1.45 | in vitro oxygen radical absorptive capacity relative to Vitamin E [6]: 4 times | Plasma Creatine Kinase (mean +/− se) (creatine kinase; 24 hour post): 171 | Plasma Creatine Kinase (mean +/− se) (creatine kinase; 48 hour post): 158 | Plasma Creatine Kinase (mean +/− se) (creatine kinase; Post-ex): 152 | Plasma Creatine Kinase (mean +/− se) (creatine kinase; Pre-ex): 109 | CK values compared with the Vitamin E group (creatine kinase; all time periods but 24 hours post-exercise): lower | isoprostanes, total antioxidant activity and MMPs in plasma and synovial fluid ([7]; 1, 5, 10, 20, or 40 mg per animal per day): decrease | gait, force plate analyses ([7]; compared to controls): significant improvement in gait | antibody titers against an antigen [8]: higher antibody titers

Cc1c(C)c2c(c(C)c1O)CC[C@@](C)(CCC[C@H](C)CCC[C@H](C)CCCC(C)C)O2 [Vitamin E, alpha-tocopherol, reference compound]
Plasma total ORAC (mean +/− se) ([3]; 24 hour post): 7590 | Plasma total ORAC (mean +/− se) ([3]; 48 hour post): 4840 | Plasma total ORAC (mean +/− se) ([3]; Post-ex): 5850 | Plasma total ORAC (mean +/− se) ([3]; Pre-ex): 7480 | ORAC (index of total anti-oxidant status) improvement by supplementation [3]: not improved | Plasma F2 Isoprostane concentration (mean +/− se) (F2-isoprostane; 24 hour post): 130 | F2I value compared to the placebo value (F2-isoprostane; 24 hour post-exercise): lower | Plasma F2 Isoprostane concentration (mean +/− se) (F2-isoprostane; 48 hour post): 78 | Plasma F2 Isoprostane concentration (mean +/− se) (F2-isoprostane; Post-ex): 223 | Plasma F2 Isoprostane concentration (mean +/− se) (F2-isoprostane; Pre-ex): 144 | Plasma Vitamin E concentration compared between treatment groups [4]: greatest | Plasma MDA (mean +/− se) (malondialdehyde; 24 hour post): 1.44 | Plasma MDA (mean +/− se) (malondialdehyde; 48 hour post): 1.44 | Plasma MDA (mean +/− se) (malondialdehyde; Post-ex): 1.17 | Changes in Plasma MDA over time, Change from Baseline (malondialdehyde; Pre to 24 hour post): −0.071 | Changes in Plasma MDA over time, Change from Baseline (malondialdehyde; Pre to 48 hour Post): −0.069 | Changes in Plasma MDA over time, Change from Baseline (malondialdehyde; Pre to Post): −0.336* | Plasma MDA (mean +/− se) (malondialdehyde; Pre-ex): 1.51 | malondialdehyde concentrations compared to the placebo group (malondialdehyde; during exercise): decreased | Plasma Creatine Kinase (mean +/− se) (creatine kinase; 24 hour post): 184 | Plasma Creatine Kinase (mean +/− se) (creatine kinase; 48 hour post): 204 | Plasma Creatine Kinase (mean +/− se) (creatine kinase; Post-ex): 208 | Plasma Creatine Kinase (mean +/− se) (creatine kinase; Pre-ex): 139
